# Measured values: patent US20090186942A1, “NOVEL NUTRACEUTICAL AND PHARMACEUTICAL COMPOSITIONS AND USE THEREOF FOR THE TREATMENT, CO-TREATMENT OR PREVENTION OF INFLAMMATORY DISORDERS” (priority 2006, published 2009)
# Legend:
# Format in all cases: cell-based
# NF-κB1 = experiment: Expression of inflammatory genes by quantitative RT-PCR: NF-κB1; conditions: RAW 264.7 cells, 4 hours
# Protocol: (§1) The effect of the compounds has been evaluated on the level of the expression of genes that are involved in the inflammatory response. These comprise e.g. the following genes TNF-α, IL-6, MIP1β and NF-κB1 and NF-κBp49, the latter two of which are transcription factors involved in the regulation of inflammatory gene expression. After 4 hours, RNA was extracted and the expression of genes determined by quantitative RT-PCR as described (Richard, N., Porath, D., Radspieler, A. and Schwager, J. Effects of resveratrol, piceatannol, tri-acetoxystilbene, and genistein on the inflammatory response of human peripheral blood leukocytes. Mol Nutr Food Res 2005. 49: 431-442).
# [1] = tested on: murine macrophage indicator cell line, RAW267.4; experiment: Inhibition of nitric oxide production in LPS-stimulated macrophages (Griess reaction); conditions: single substances, RAW267.4 cells, LPS 1 μg/ml, 24 hours
# Protocol: (§2) Pure substances were then further assayed in vitro in cellular cell systems. The inhibition of the synthesis of nitric oxide and/or pro-inflammatory prostaglandins (PG) by the compounds was measured. PGE2 plays a critical role in the inflammation process, while nitric oxide (NO) is a hallmark of inflammation in various chronic inflammatory diseases including various forms of arthritis, gastro-intestinal diseases and metabolic syndrome X. The effects of compounds on the inflammatory response were tested in cellular assays using a murine macrophage indicator cell line, RAW267.4. The cells were purchased from ATCC (Manassas, Va., USA) and cultured in DMEM containing streptomycin/penicillin, non-essential amino acids and 10% fetal calf serum (FCS). In order to test a large range of concentration of compounds, cells (˜50,000/well) were seeded into flat-bottomed microtiter plates and cultured for one day. Cells were then starved in complete medium containing 0.25% FCS (D-025). After overnight culture, medium was removed and replaced by 100 μL of D-025 containing the test compounds at twice the final concentration. Subsequently, 100 μL of D-025 containing 2 μg/ml LPS was added (i.e. final LPS concentration of 1 μg/ml) and the cells cultured for 24 hours.
# (§3) Substances were tested in a concentration range from 0.2 to 50 μM in two-fold dilution steps. Extracts were tested from 0.2 to 50 mg/L. All treatments were done in duplicates and several experimental series were done for each treatment. Concentrations of nitrite which was rapidly formed from nitric oxide released by cells were determined by the Griess reaction using sodium nitrite as standard. Briefly, 50 μl of supernatant was mixed with Griess reagent 1 (25 μL) and Griess reagent 2 (25 μL), centrifuged and the optical density at 540 nm determined. PGE2 secreted into the cell culture medium was determined by EIA obtained from Cayman Chemicals (Ann Harbor, […]., USA) and used according to the manufacturer's instructions. All determinations were done in duplicates and at various dilutions of the culture supernatant. IC50 values were calculated using a […] least-square fitting equation [y=A+((B−A)/(1+((C−x)̂D))] for best-fit curves (Excel fit software program).
# TNF-α = experiment: Expression of inflammatory genes by quantitative RT-PCR: TNF-α; conditions: RAW 264.7 cells, 4 hours
# Protocol: as §1
# IL-6 = experiment: Expression of inflammatory genes by quantitative RT-PCR: IL-6; conditions: RAW 264.7 cells, 4 hours
# Protocol: as §1
# [2] = tested on: macrophage inflammatory protein 1 [MIP-1]; experiment: Expression of inflammatory genes by quantitative RT-PCR: MIP-1; conditions: RAW 264.7 cells, 4 hours
# Protocol: as §1
# [3] = tested on: murine macrophage indicator cell line, RAW267.4; experiment: Inhibition of PGE2 production in LPS-stimulated macrophages (EIA); conditions: single substances, RAW267.4 cells, LPS 1 μg/ml, 24 hours
# Protocol: as §2, §3
# NF-κBp49 = experiment: Expression of inflammatory genes by quantitative RT-PCR: NF-κBp49; conditions: RAW 264.7 cells, 4 hours
# Protocol: as §1
smiles,measurement,setting,value
C=CC/C=C\C/C=C\CCCCCCCc1cccc(O)c1C(=O)O [(15:3)-Anacardic acid],% expression NF-κB1 mRNA relative to cells stimulated with LPS only,NF-κB1; 6.25 μM/L,86%
same,% expression NF-κB1 mRNA relative to cells stimulated with LPS only,NF-κB1; 12.5 μM/L,78%
same,IC50,[1],7.4 ± 0.4 µM
same,% expression TNF-α mRNA relative to cells stimulated with LPS only,TNF-α; 6.25 μM/L,76%
same,% expression TNF-α mRNA relative to cells stimulated with LPS only,TNF-α; 12.5 μM/L,54%
same,Effect on TNF-α expression (in words),TNF-α,significantly reduced
same,% expression IL-6 mRNA relative to cells stimulated with LPS only,IL-6; 6.25 μM/L,65%
same,% expression IL-6 mRNA relative to cells stimulated with LPS only,IL-6; 12.5 μM/L,71%
same,% expression MIP-1-α mRNA relative to cells stimulated with LPS only,[2]; 6.25 μM/L,58%
same,% expression MIP-1-α mRNA relative to cells stimulated with LPS only,[2]; 12.5 μM/L,41%
same,Effect on MIP-1β expression (in words),[2],significantly reduced
same,IC50,[3],26.6 ± 21.1 µM
same,% expression NF-κBp49 mRNA relative to cells stimulated with LPS only,NF-κBp49; 6.25 μM/L,74%
same,% expression NF-κBp49 mRNA relative to cells stimulated with LPS only,NF-κBp49; 12.5 μM/L,57%
"Oc1ccc(C=Cc2cc(O)cc(O)c2)cc1 [Resveratrol, reference compound]",IC50,[1]; Mus musculus,31 ± 2 µM
same,IC50,[3]; Mus musculus,24 ± 2 µM
C=CC/C=C\C/C=C\CCCCCCCc1cc(O)cc(O)c1 [Cardoltriene],IC50,[1],4.9 ± 0.8 µM
same,IC50,[3],0.9 ± 0.2 µM
"O=C(O[C@@H]1Cc2c(O)cc(O)cc2O[C@@H]1c1cc(O)c(O)c(O)c1)c1cc(O)c(O)c(O)c1 [EGCG, reference compound]",IC50,[1],33 ± 2 µM
same,IC50,[3],35 µM
"CCCCCC/C=C\CCCCCCCc1cccc(O)c1C(=O)O [Ginkoic acid, Ginkgoic acid]",IC50,[1],> 100 µM
same,IC50,[3],57.8 µM
CCC/C=C\C/C=C\CCCCCCCc1cccc(O)c1C(=O)O [(15:2)-Anacardic acid],IC50,[1],82.4 ± 6.7 µM
same,IC50,[3],43.1 ± 5.5 µM
